Source: patent US20080255244A1, “CaM Kinase II Inhibitor Improves Retinoic Acid Therapy and Inhibits the Proliferation of Myeloid Leukemia Cells” (Fred Hutchinson Cancer Research Center, priority 2007, published 2008)
Entries after “also recorded” stand apart in the source; their conditions may differ.

How the values were obtained:
[1] = system: autophosphorylated CaMKIIγ in TonB210.1 cells; test: bcr-abl induced CaMKII autophosphorylation in TonB210.1 cells (Western blot); assay type: cell-based; settings: TonB210.1 deprived of IL-3 for 24 hours, compound added with doxycycline
K562 cells = test: K562 proliferation in liquid suspension culture (cell counts); assay type: cell-based, human; settings: seeded at 5×10^4 cells/ml; cell counts
Experimental: (A) K562 cells were seeded in liquid suspension culture at 5×10^4 cells/ml in the presence or absence of the indicated concentration of compounds, and cell counts were obtained at the indicated time.
Cell lines. All leukemia cell lines are cultured at 37° in RPMI supplemented with 5% heat-inactivated fetal calf serum.

[2] = system: autophosphorylated CaMKIIγ in HL60 cells; test: Western blot of CaMKIIγ autophosphorylation in HL60 cells; assay type: cell-based, human; settings: phospho-T286/7 antibody, ATRA 1 μM, TPA 0.1 μM
Experimental: (§1) FIG. 7. KN-62 regulates the differentiation of myeloid leukemia cell lines. (A) Wright Giemsa-stained HL-60 cells either (a) uninduced or treated for five days with (b) KN62 or (c) ATRA. (d) CD11b expression in HL-60 cells after five days exposure to KN62 (5 μM) or ATRA (1 μM). (B) Wright-Giemsa stained NB4 cells treated for five days with KN-62 (5 μM) and ATRA as indicated. […] (C) Cd11b expression of NB4 cells treated for five days with the indicated concentrations of RA and/or KN-62. (D) Western blots with the indicated antibodies were performed on HL60 cell lysates following incubation with KN62 for the indicated period of time. (E) Western blots of NB4 cell lysates following a five day incubation with the indicated compounds.
(§2) FIG. 9. Terminal differentiation/apoptosis of myeloid leukemia cells is associated with decreased CaMKIIγ activation. (A) Lysates from the HL60, NB4 and U937 myeloid cell lines treated with ATRA (1 μM) for the indicated period of time were subjected to Western blots. (B) Lysates from the indicated myeloid cell lines treated for five days with the indicated concentration of ATRA were subjected to Western blots. (C) Lysates from HL60 cells treated with TPA (0.1 μM) for the indicated time were subjected to Western blots. (D) Lysates from NB4 cells treated with arsenic trioxide (1 uM) for the indicated time were subjected to Western blots.
(§3) Protein extracts, Western blotting and co-immunoprecipitations. Westerns and co-immunoprecipitations were performed as previously detailed (Si, J., and Collins, S. J., Blood 100:4401-4409 (2002)).
(§4) Antibodies and Western blots. Protein extracts, immunoprecipitations and Western blots were performed as previously detailed (Si J, Collins S J. IL-3-induced enhancement of retinoic acid receptor activity is mediated through Stat5, which physically associates with retinoic acid receptors in an IL-3-dependent manner. Blood 100: 4401-9 (2002)). Antibodies against CaMKI, CaMKIIγ, CaMKIV, c-myc, Stat3, Stat5, calmodulin, as well as the phosphospecific CaMKII (T286, 287) and phosphospecific CaMKI (T177) antibodies were from Santa Cruz Biotechnology. Antibodies against phospho-Stat1 (Ser727), phospho-Stat3 (Ser727 and Tyr 705), phospho-Stat5 (Tyr 694), phospho-p44/42 MAP kinase (Thr202/Tyr 204), p44/42 MAP kinase, phospho-p38 MAP kinase (Thr 180/Tyr 182), phospho-GSK3β (Ser9) were from Cell Signaling Technology. Antibodies against Stat1, GSK3β, β-catenin, PP2Ac, and cyclin D1 were from BD Biosciences.

[3] = system: Stat3 transcriptional activity in K562 cells; test: Stat3 response element luciferase reporter in K562 cells; assay type: cell-based, human; settings: 48 hours of culture
Experimental: FIG. 13. Stat3 is directly phosphorylated and activated by CaMKIIγ at Ser727. (A, i). Cell lysates from the indicated human leukemia cell lines were subjected to Western blots utilizing the indicated Stat3 antibodies. ii). Cell lysates from the same primary AML samples depicted in FIG. 1B were subjected to Western blots utilizing the indicated Stat3 antibodies. B). The IL-3 dependent TonB210.1 cells were deprived of IL-3 for 24 hours. The cells were then treated with the indicated compounds immediately prior to the addition of doxycycline. After an additional 24 hours cell lysates were harvested and subjected to Western blots with the indicated Stat3 antibodies. C). K562 cells were electroporated with a luciferase reporter driven by a Stat3 response element. The indicated concentrations of KN93 and the Stat 3 inhibitor, cucurbitacin I, were added and relative luciferase activity determined on cell lysates following 48 hours of culture. D, i) K562 cell lysates were immunoprecipitated with control IgG or a Stat3 antibody. […]
Transient transfections and luciferase assays. […] Stat3 transcriptional activity was determined in K562 cells transfected with the pSIE-tk-LUC luciferase reporter which harbors a Stat3 binding site ([…]). […]

[4] = system: autophosphorylated CaMKIIγ in K562 cells; test: Western blot of CaMKIIγ autophosphorylation in K562 cells; assay type: cell-based, human; settings: for activated, autophosphorylated CaMKIIγ level: gleevec 5 uM, ATRA five days
Experimental: as §2
FIG. 10. Inhibiting bcr-abl activity/expression inhibits CaMKIIγ activation. (A) Lysates from K562 cells undergoing growth arrest following treatment with gleevec (5 uM) for the indicated times were subjected to Western blots. (B) Lysates from TonB210.1 cells depleted of doxycycline for the indicated period of time were subjected to Western blots. (C) IL-3 dependent TonB210.1 cells were deprived of IL-3 for 24 hours (lane 1). The cells were then treated with the indicated compounds simultaneously with the addition of doxycycline (lanes 2-8). After 24 hours cell lysates were harvested and subjected to Western blots with the indicated CaMKII antibodies. (D) K562 cells were cultured for 48 hours with the indicated chemical inhibitors of specific signal transduction pathways. Cell lysates were harvested and subjected to Western blot analysis.
FIG. 12. CaMKII regulates multiple signal transduction pathways in myeloid cells. (A,B) Lysates from K562 cells cultured for the indicated time in KN93 were subjected to Western blots. (C) The K562 cells transduced as described in Materials and Methods with either (i) the doxycycline (DOX) inducible expression vector/transactivator harboring the full length, Lys^43 mutated, kinase dead CaMKIIγ (kdCaMKIIγ (Tet-on)) or (ii) the CaMKII shRNA generating plasmids, were cultured in liquid suspension in the presence or absence of DOX as indicated, and cell counts obtained after 48 hours. (D) Lysates from K562 cells transduced with the indicated vectors were subjected to Western blots utilizing the indicated antibodies. For lanes 2 and 4 doxycycline (DOX) treatment was for two days.
as §4

[5] = system: RAR transcriptional activity in HL60 cells; test: RARE-driven luciferase reporter in HL60 cells; assay type: cell-based, human; settings: six hours after treatment with ionomycin and ATRA
Experimental: FIG. 1. CaM kinase isoform expression in hematopoietic cells. (A) The activity of an ATRA-responsive luciferase reporter (βRARE-tk-Luc, 25 μg) was assessed in electroporated HL60 cells six hours after treatment with the indicated concentrations of ionomycin and ATRA. (B) The activity of the luciferase reporter (βRARE-tk-Luc, 25 μg) was assessed in HL60 six hours after treatment with KN62 (5 uM), KN93 (5 uM) and ATRA (1 uM). (C) Western blots were performed utilizing the indicated antibodies. F9 (column 6) is a mouse embryonal carcinoma cell line. BaF3 (column 7) is a cultured pre-B cell line. BM cells (column 8) are kit-ligand dependent normal murine hematopoietic precursors. PT67 murine fibroblasts individually transduced with either rat CaMKIIα, human CaMKIα or human CaMKIV (column 9) together with brain lysates (column 1) serve as positive controls for the respective antibodies. (D) CaMK assays were performed on HL-60 cell lysates immunoprecipitated with the indicated antibodies.
Transient transfections and luciferase assays. Murine PT67 fibroblasts were transfected utilizing calcium phosphate precipitation. All hematopoietic cell lines were transiently transfected by electroporation as previously detailed (Johnson, B. et al., Molecular and Cellular Biology 19:3372-3382 (1999)). In the transient transfections the LXSN vector (M28248) served as the expression vector for the wild type and site-directed mutagenized CaMKII and RARα coding region cDNAs. Human cDNA homologous to the coding region of rat CaMKIINα, a CaMKII inhibitory protein, was obtained by RT-PCR from HL60 RNA and cloned into the LXSN vector. The RA-responsive luciferase reporter harbors the RARE from the RARβ2 promoter as previously detailed (Si, J., and Collins, S. J., Blood 100:4401-4409 (2002)). The PON838 plasmid, a β-galactosidase reporter driven by the β-actin promoter, was used as an internal control to determine transfection efficiency for calculating relative luciferase activity.

[6] = system: autophosphorylated CaMKIIγ in NB4 cells; test: Western blot of CaMKIIγ autophosphorylation in NB4 cells; assay type: cell-based, human; settings: single agent, ATRA 1 μM, arsenic trioxide 1 uM
Experimental: as §1, §2, §3, §4

O=C(O)c1ccc2c3c1cccc3c(=O)n1c3ccccc3nc21 [STO609]
bcr-abl (tet/doxycycline) restored CaMKII autophosphorylation [1]: not inhibited | K562 cell proliferation (K562 cells): did not significantly inhibit; also recorded: minimal effects

CCCCCCCCCCCCCC(=O)O[C@@H]1[C@@H](C)[C@@]2(O)[C@@H](C=C(CO)C[C@]3(O)C(=O)C(C)=C[C@@H]23)[C@@H]2C(C)(C)[C@]12OC(C)=O [TPA, phorbol myristate acetate]
activated, autophosphorylated CaMKIIγ level [2]: marked decrease

CC(C)(O)/C=C/C(=O)[C@](C)(O)[C@H]1[C@H](O)C[C@@]2(C)[C@@H]3CC=C4[C@@H](C=C(O)C(=O)C4(C)C)[C@]3(C)C(=O)C[C@]12C [cucurbitacin I]
Stat3 responsive reporter activity [3]: inhibit

Cc1ccc(NC(=O)c2ccc(CN3CCN(C)CC3)cc2)cc1Nc1nccc(-c2cccnc2)n1 [imatinib]
total CaMKIIγ level [4]: no significant change | activated, autophosphorylated CaMKIIγ level [4]: rapid, marked decrease | activated, autophosphorylated CaMKIIγ level ([4]; listed as gleevec): downregulation | K562 cell proliferation (K562 cells): proliferative arrest

C[C@H](CCC(=O)O)C[C@H](C)C[C@H](C)C(=O)/C=C(\O)[C@H](C)C[C@H](C)C/C=C/[C@@H](C)[C@@H](O)[C@@H](C)[C@@H](O)C[C@@H]1CC[C@@](C)([C@H]2CC[C@@](C)([C@@H](C)O)O2)O1 [ionomycin]
ATRA-induced activity of RARE-driven luciferase reporter [5]: inhibited

KN92
K562 cell proliferation (K562 cells): did not significantly inhibit

arsenic trioxide
activated, autophosphorylated CaMKIIγ level [6]: downregulation
